Reference: ChEMBL document CHEMBL1201862, “PubChem BioAssay data set” (2004)
Activity calls are given as the source filed them.

Columns and labels:
[1] = target: Bcl-2-like protein 10 (Homo sapiens, UniProt Q9HD36); assay: displacers of TR3 peptide from Bcl-B, primary screen, selectivity assay for Bfl-1 inhibitor project, biochemical, fluorescence polarization, FITC-TR3 peptide (AID 748);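 note: fluorescence polarization from a fluorescein-labelled TR3 peptide binding purified Bcl-B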
[2] = target: Induced myeloid leukemia cell differentiation protein Mcl-1 (Homo sapiens, UniProt Q07820); type: functional
Sequence of Induced myeloid leukemia cell differentiation protein Mcl-1 (Q07820 whole entry): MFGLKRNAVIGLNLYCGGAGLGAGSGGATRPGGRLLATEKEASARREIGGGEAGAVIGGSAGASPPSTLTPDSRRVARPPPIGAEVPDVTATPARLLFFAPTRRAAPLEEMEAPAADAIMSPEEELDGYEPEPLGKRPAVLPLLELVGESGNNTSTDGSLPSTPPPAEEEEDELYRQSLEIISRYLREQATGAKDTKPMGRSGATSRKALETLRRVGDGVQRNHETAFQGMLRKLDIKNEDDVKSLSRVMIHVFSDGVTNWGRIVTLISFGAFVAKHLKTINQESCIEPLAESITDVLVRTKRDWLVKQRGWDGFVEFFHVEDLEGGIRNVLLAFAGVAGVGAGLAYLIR

[3] = target: T1, Coagulation factor XII (Homo sapiens, UniProt P00748); type: functional;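 note: activated factor XIIa alpha cleaving a fluorogenic AMC peptide substrate; inhibitor potency from loss of enzyme activity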
T1 sequence (P00748 whole entry): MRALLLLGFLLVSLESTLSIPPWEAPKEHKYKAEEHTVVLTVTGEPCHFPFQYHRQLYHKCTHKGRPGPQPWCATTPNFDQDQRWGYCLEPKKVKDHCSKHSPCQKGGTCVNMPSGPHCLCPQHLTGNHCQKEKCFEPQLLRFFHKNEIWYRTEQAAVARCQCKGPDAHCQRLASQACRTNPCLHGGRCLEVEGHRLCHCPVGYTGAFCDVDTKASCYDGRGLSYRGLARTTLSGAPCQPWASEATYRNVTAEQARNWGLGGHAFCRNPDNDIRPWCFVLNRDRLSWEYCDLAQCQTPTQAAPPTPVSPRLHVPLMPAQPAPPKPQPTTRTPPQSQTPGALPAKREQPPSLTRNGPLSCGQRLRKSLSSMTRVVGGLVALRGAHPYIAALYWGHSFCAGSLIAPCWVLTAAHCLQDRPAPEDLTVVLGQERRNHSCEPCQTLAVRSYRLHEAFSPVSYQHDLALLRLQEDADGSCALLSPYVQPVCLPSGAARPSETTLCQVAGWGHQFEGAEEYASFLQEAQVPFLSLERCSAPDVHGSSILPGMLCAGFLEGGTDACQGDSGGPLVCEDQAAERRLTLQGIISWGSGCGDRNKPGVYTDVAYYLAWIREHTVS

[4] = target: T2, Carboxy-terminal domain RNA polymerase II polypeptide A small phosphatase 1 (Homo sapiens, UniProt Q9GZU7); assay: inhibitors of CTDSP1, concentration-response testing, biochemical assay, absorbance-based, actives from ultra-high-throughput screening (AID 540297); type: functional
T2 sequence (Q9GZU7 whole entry): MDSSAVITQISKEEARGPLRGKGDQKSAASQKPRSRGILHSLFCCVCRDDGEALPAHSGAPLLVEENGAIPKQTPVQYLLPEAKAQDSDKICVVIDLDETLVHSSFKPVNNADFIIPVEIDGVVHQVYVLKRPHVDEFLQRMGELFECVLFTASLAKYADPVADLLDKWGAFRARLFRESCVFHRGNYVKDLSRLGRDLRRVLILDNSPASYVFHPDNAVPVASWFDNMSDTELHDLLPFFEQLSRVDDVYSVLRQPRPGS

[5] = test system: Trypanosoma cruzi; assay: growth inhibition of intracellular Trypanosoma cruzi, dose response, cell-based, plate reader, dry powder, set 3 (AID 493197); type: functional
[6] = target: T3, Eukaryotic translation initiation factor 2-alpha kinase 3 (Homo sapiens, UniProt Q9NZJ5); assay: Dose response cell-based high-throughput screening assay to measure PERK inhibition. [Related pubchem assays: 1416 ]; type: functional
T3 sequence (Q9NZJ5 whole entry): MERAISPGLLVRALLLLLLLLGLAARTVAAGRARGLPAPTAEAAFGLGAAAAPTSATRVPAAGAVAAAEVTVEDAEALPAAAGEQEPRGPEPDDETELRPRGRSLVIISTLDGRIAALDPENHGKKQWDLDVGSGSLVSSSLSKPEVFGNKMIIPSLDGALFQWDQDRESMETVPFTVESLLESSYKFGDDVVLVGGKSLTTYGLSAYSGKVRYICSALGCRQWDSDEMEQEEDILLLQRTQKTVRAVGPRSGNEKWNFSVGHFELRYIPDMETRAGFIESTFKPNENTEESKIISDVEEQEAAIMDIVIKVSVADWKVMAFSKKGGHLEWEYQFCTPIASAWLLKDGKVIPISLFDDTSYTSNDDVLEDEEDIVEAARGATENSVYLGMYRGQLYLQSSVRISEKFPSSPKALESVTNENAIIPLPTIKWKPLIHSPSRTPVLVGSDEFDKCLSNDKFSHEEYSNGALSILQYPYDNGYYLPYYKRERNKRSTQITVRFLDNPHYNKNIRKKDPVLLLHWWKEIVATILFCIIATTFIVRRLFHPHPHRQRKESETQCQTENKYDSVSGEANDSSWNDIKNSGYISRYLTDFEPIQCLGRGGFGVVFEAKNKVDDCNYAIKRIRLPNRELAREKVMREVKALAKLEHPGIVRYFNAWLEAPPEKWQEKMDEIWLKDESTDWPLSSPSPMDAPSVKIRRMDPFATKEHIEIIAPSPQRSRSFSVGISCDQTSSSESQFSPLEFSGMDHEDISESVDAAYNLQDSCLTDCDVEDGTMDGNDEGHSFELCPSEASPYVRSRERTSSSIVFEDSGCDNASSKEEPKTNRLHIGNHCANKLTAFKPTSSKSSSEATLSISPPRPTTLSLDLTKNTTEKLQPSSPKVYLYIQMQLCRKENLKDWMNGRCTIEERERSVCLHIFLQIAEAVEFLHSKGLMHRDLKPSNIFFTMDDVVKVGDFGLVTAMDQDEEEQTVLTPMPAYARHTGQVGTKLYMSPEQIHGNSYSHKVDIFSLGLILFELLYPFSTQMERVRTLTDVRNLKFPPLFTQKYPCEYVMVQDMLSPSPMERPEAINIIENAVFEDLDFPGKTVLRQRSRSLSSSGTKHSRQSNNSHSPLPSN

[7] = target: T3, Eukaryotic translation initiation factor 2-alpha kinase 3; assay: Counterscreen assay for PERK inhibitors: Dose response cell-based high throughput screening assay to measure inhibition of PERK at 6 hours. [Related pubchem assays: 1522, 1416 ]; type: functional
[8] = A Cell Based Secondary Assay To Explore Cytotoxicity of Compounds that Sensitize Mycobacterium Tuberculosis to Beta-Lactam Antibiotics.; type: functional
[9] = growth suppression of PTEN-null colon cells, dose response, cell-based, HCT116 PTEN knockout (AID 1047); type: functional;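 note: HCT116 colon tumor cells with PTEN knocked out; cells exposed to compound for 60 hours before readout; potency for loss of cell viability measured by luminescence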
[10] = growth suppression of beta-catenin-knockout colon cells, dose response, cell-based, HCT116, human colon tumor (AID 1045); type: functional;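 note: HCT116 colon tumor cells with beta catenin knocked out; cells exposed to compound for 60 hours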
[11] = target: T4, Caspase-3 (Homo sapiens, UniProt P42574); assay: procaspase-3 activation potency of dual hits, dose response, counter-screen for dual procaspase-3/7 activator project, biochemical, absorbance, PC-3 D3A mutant (AID 504328)
T4 sequence (P42574 whole entry): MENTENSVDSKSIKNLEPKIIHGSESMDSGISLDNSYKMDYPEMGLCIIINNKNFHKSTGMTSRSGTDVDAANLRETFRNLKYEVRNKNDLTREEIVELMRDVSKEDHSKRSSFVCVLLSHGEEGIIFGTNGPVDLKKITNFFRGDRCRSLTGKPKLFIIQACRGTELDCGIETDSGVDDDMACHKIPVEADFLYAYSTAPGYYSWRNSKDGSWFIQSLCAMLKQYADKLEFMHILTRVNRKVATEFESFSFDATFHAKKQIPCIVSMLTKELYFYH

[12] = target: Caspase-7 (Homo sapiens, UniProt P55210); assay: procaspase-7 activators, dose response, dual procaspase-3/-7 activator project, biochemical, absorbance, human (AID 504330)

Sequence of Bcl-2-like protein 10 (Q9HD36 whole entry): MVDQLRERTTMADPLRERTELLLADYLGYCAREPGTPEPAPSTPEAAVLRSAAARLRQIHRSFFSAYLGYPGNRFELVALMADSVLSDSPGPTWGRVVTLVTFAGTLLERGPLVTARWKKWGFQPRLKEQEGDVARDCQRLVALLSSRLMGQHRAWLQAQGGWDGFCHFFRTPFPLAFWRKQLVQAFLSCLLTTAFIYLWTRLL

SMILES: O=C(NCc1ccco1)c1c2c(nc3ccccc13)CCC2
- IC50 [1]: 16.4 µM (active)
- IC50 [2]: 4.33 µM (active)
- IC50 [3]: > 50 µM (inactive)
- IC50 [4]: 5.65 µM (active)

SMILES: COc1ccc(C(C)NC(=O)C2CCN(CCCc3ccccc3)CC2)cc1OC (configuration not stated)
- AC50 [5]: 66.3 µM (active)

SMILES: O=C(CCc1ccccc1)NCC(=O)N/N=C/c1ccc(O)cc1O
- EC50 [6]: > 55.7 µM (not active)
- EC50 [7]: > 55.7 µM (not active)

SMILES: O=c1c(O)c(-c2ccc3c(c2)OCO3)oc2ccccc12
- CC50 [8]: > 40 µM (active)
- EC50 [9]: 41.7 µM (active)
- EC50 [10]: 23.1 µM (active)
- EC50 [11]: > 85.3 µM (inactive)
- EC50 [12]: > 85.3 µM (inactive)
